# Experimental data taken from ChEMBL document CHEMBL1201862, “PubChem BioAssay data set” (2004).
# Activity calls are given as the source filed them.
# Columns and labels:
# [1] = biological target: fMet-Leu-Phe receptor (Homo sapiens, UniProt P21462); assay: formyl peptide receptor binders – dose response (AID 519); format: functional
# [2] = blockers of HIV-1 envelope-mediated cell-cell fusion – cherry-pick, dose response (AID 652057); format: functional, cell-based
# [3] = system: HEK293; assay: viability loss in HEK293T cells – cell-based, ATP luminescence, cherry-pick samples, cytotoxicity control, dose response (AID 687005); format: functional; details: Homo sapiens;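 also: cells exposed to compound for 48 hours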
# [4] = HIV-1 AD8 envelope cell-cell fusion blockers – cherry-pick, dose response (AID 652062); format: functional, cell-based;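 also: luciferase signal from cell-cell fusion driven by HIV-1 clade B AD8 Env; potency is for inhibitors of fusion seen as a drop in luminescence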
# [5] = inhibition of Env-driven cell fusion – HIV entry, plate reader, dry powder, dose response (AID 687023); format: functional, cell-based
# [6] = HEK293 Cytotoxicity Assay Measured in Cell-Based System Using Plate Reader - 7071-01_Inhibitor_Dose_CherryPick_Activity_Set2.; format: functional
# [7] = L6 myocyte viability loss – cell-based, plate reader, cherry-pick, cytotoxicity control, dose response (AID 651896); format: functional
# [8] = antileishmanial activity on axenic amastigotes – plate reader, cherry pick, dose response (AID 651891); format: functional, cell-based; details: Leishmania donovani
# [9] = intracellular Trypanosoma cruzi inhibitors in host cells – cell-based, plate reader, cherry-pick samples, set 3, dose response (AID 651818); format: functional;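 also: compounds incubated with infected cells for about four days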
# [10] = African trypanosome bloodstream form growth inhibition – STIB900 strain, plate reader, cherry pick, dose response (AID 651893); format: functional, cell-based, Trypanosoma brucei rhodesiense; details: Trypanosoma brucei
# [11] = antimalarial activity against erythrocytic parasites – NF54 strain, plate reader, dry powder, dose response (AID 651889); format: functional, cell-based
# [12] = host muscle cell viability loss – plate reader, dry powder, counter-screen for T. cruzi inhibitor project, dose response (AID 651895); format: functional, cell-based
# [13] = T. cruzi growth inhibition in host cells, dose response, cell-based, plate reader, dry powder, set 2 (AID 652275); format: functional
# [14] = Trypanosoma cruzi replication inhibitors in host cells – cell-based, plate reader, dry powder samples, dose response (AID 651845); format: functional
# [15] = anti-trypanosomal activity in BESM host cells – imaging, CA-I/72 strain, bovine embryo skeletal muscle, dry powder, dose response (AID 651885); format: functional, cell-based
# [16] = antileishmanial activity on axenic amastigotes – plate reader, dry powder, dose response (AID 651892); format: functional, cell-based
# [17] = intracellular Chagas parasite inhibition in myoblasts – Tulahuen strain, L-6 host cells, dry powder, dose response (AID 651890); format: functional, cell-based
# [18] = African trypanosome bloodstream form growth inhibition – STIB900 strain, plate reader, dry powder, dose response (AID 651894); format: functional, cell-based
# [19] = Fluorescence-based cell-based high throughput dose response assay for inhibitors of the interaction of nucleotide-binding oligomerization domain containing 2 (NOD2) and the receptor-interacting serine-threonine kinase 2 (RIPK2).; format: functional; details: Homo sapiens
# [20] = biological target: Paired box protein Pax-8 (Homo sapiens, UniProt Q06710); assay: PAX8 transcriptional activity inhibition in RMG-I – RMG-I cells, luciferase, cherry-pick, dose response (AID 687027); format: functional, cell-based;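 also: luciferase reporter driven by Pax8 target thyroperoxidase promoter measured by SteadyGlo luminescence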
# [21] = inhibitors acting on PAX2 in cells – cell-based, plate reader, dry powder samples, selectivity assay for PAX8 inhibitor project, dose response (AID 743048); format: functional;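 also: HEK293 cells carrying a WT1 promoter luciferase reporter driven by expressed Pax2; potency is for inhibition of Pax2 driven reporter signal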
# [22] = COV362 cell viability loss – plate reader, dry powder, SA12, cytotoxicity control for PAX8 inhibitor project, dose response (AID 743144); format: functional, cell-based
# [23] = toxicity toward immortalized ovarian surface epithelium – cell-based, plate reader, dry powder samples, cytotoxicity control for PAX8 inhibitor project, dose response (AID 743045); format: functional
# [24] = A2780 cell killing – plate reader, dry powder samples, cytotoxicity control, dose response (AID 743046); format: functional, cell-based
# [25] = OVCAR-3 cell viability loss – plate reader, dry powder samples, PAX8 inhibitor project, dose response (AID 743044); format: functional, cell-based
# [26] = PAX5 cellular inhibition readout – cell-based, plate reader, dry powder samples, selectivity assay for PAX8 inhibitor project, dose response (AID 743047); format: functional;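 also: HEK293 cells carrying a Pax5 driven CD19 promoter luciferase reporter; potency of inhibitors that lower reporter luminescence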
# [27] = IGROV1 cell killing – plate reader, dry powder samples, PAX8 inhibitor project, dose response (AID 743043); format: functional, cell-based; details: IGROV-1
# [28] = OVCAR4 cell viability loss – plate reader, dry powder, SA11, cytotoxicity control for PAX8 inhibitor project, dose response (AID 743150); format: functional, cell-based; details: OVCAR-4
# [29] = COV434 cell viability loss – plate reader, dry powder, SA7, cytotoxicity control for PAX8 inhibitor project, dose response (AID 743145); format: functional, cell-based
# [30] = OV-90 cell viability loss – plate reader, dry powder, SA8, PAX8 inhibitor project, dose response (AID 743149); format: functional, cell-based
# [31] = PAX8-dependent cell viability loss – plate reader, dry powder, dose response (AID 743049); format: functional, cell-based
# [32] = inhibitors of non-replicating M. tuberculosis, dose response, luciferase, dry powder (AID 651619); format: functional; details: Mycobacterium tuberculosis
# [33] = inhibitors of non-replicating M. tuberculosis, dose response, luciferase, dry powder (AID 651620); format: functional; details: Mycobacterium tuberculosis
# [34] = growth inhibition of replicating M. tuberculosis, dose response, counter-screen, dry powder, IC90 (AID 651617); format: functional; details: Mycobacterium tuberculosis
# [35] = biological target: T1, Heat shock factor protein 1 (Mus musculus, UniProt P38532); assay: enhancement of HSF1-driven luciferase signal – cell-based, NIH3T3, luminescence, dose retest, confirmation (AID 435004); format: functional;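 also: stress induced by proteasome inhibitor MG132 added 30 min after compound; luciferase reporter driven by HSF1 response element in NIH3T3 cells; actives raise luminescence as potentiators of the MG132 stress response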
# T1 sequence (P38532 whole entry): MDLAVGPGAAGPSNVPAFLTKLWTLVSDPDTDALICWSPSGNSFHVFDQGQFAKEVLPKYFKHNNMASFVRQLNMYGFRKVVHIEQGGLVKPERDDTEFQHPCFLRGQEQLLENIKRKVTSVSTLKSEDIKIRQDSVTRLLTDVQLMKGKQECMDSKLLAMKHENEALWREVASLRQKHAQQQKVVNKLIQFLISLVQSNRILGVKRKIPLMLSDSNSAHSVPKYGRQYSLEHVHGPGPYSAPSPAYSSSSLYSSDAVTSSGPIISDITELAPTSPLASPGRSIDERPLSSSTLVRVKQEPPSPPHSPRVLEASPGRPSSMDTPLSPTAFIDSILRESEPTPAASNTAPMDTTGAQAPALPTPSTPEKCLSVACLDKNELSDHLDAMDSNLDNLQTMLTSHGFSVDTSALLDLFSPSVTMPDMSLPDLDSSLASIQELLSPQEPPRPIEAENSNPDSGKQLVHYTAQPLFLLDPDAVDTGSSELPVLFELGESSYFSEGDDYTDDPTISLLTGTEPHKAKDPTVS
# [36] = biological target: COUP transcription factor 2 (Homo sapiens, UniProt P24468); assay: Luminescence-based cell-based high throughput dose response assay to identify inhibitors of COUP-TFII (NR2F2).; format: functional;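 also: HEK293 cells transiently cotransfected with COUP-TFII expression vector and reporter; luciferase reporter luminescence driven by COUP-TFII from the pX2-168 reporter plasmid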
# [37] = mouse embryonic fibroblast toxicity – cell-based, plate reader, dry powder, set 2, cytotoxicity control, dose response (AID 652280); format: functional; details: NIH3T3
# [38] = mouse fibroblast viability loss – cell-based, dry powder samples, cytotoxicity control, dose response (AID 651844); format: functional; details: NIH3T3
# [39] = viability of PTEN-deleted HCT116 cells – cell-based, HCT116 PTEN knockout, dose response (AID 1047); format: functional;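 also: HCT116 colon tumor cells with PTEN knocked out; cells exposed to compound for 60 hours before readout; potency for loss of cell viability measured by luminescence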
# [40] = viability of HCT116 lacking mutant beta-catenin – cell-based, human colon tumor, dose response (AID 1045); format: functional;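 also: HCT116 colon tumor cells with beta catenin knocked out; cells exposed to compound for 60 hours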
# [41] = biological target: T2, Protein skinhead-1 (Caenorhabditis elegans, UniProt P34707); format: functional
# T2 sequence (P34707 whole entry): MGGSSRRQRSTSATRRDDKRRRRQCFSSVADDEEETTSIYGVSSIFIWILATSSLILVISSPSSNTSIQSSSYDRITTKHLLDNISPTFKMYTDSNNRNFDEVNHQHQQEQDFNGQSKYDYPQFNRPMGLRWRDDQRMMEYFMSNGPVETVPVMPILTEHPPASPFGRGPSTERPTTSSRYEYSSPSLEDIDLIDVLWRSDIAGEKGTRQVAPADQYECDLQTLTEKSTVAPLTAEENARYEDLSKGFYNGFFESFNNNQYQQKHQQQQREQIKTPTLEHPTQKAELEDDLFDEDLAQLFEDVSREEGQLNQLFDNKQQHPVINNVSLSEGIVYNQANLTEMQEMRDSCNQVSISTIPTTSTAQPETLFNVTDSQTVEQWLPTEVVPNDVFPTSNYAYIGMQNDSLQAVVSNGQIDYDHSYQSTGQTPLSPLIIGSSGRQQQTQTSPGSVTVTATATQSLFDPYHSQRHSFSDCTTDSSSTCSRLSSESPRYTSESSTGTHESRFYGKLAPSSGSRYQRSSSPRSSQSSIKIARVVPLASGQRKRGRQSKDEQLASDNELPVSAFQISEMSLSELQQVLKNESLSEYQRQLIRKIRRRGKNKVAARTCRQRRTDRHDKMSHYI
# [42] = reduced cellular PGC1a acetyl-lysine signal – cell-based, cherry-picked samples, dose response (AID 720514); format: functional;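 also: potency may reflect raised or lowered acetylation signal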
# [43] = viability loss in HepG2 hepatoma cells – cell-based, cherry-picks, set 5, cytotoxicity control, dose response (AID 1053118); format: functional
# [44] = viability loss in HEK293 kidney cells – cell-based, cherry-picks, set 5, cytotoxicity control, dose response (AID 1053117); format: functional
# [45] = viability loss in A549 lung cancer cells – cell-based, cherry-picks, […], cytotoxicity control, dose response (AID 1053119); format: functional
# Sequence of fMet-Leu-Phe receptor (P21462 whole entry, the tested form may be a part): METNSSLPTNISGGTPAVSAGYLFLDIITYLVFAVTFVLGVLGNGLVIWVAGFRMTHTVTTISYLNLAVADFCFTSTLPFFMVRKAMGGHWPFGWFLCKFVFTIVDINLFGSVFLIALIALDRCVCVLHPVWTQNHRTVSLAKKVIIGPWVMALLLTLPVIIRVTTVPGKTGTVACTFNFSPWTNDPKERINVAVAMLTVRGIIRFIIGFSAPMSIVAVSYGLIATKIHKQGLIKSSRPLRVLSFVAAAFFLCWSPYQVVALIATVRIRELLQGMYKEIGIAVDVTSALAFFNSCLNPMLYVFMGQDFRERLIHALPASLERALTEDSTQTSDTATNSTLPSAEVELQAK
# Sequence of Paired box protein Pax-8 (Q06710 whole entry): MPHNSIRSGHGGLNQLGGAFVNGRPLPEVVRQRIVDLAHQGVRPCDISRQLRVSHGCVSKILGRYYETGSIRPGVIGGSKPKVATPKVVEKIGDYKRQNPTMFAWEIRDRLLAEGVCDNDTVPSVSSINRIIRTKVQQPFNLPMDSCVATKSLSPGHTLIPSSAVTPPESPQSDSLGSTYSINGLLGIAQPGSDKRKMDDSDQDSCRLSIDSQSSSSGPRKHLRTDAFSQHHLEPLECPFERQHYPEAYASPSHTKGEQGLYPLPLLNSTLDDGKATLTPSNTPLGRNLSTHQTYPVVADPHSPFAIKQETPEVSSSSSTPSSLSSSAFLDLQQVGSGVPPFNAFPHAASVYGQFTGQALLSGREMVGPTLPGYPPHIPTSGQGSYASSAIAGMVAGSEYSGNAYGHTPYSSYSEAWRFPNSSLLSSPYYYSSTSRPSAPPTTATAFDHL
# Sequence of COUP transcription factor 2 (P24468 whole entry): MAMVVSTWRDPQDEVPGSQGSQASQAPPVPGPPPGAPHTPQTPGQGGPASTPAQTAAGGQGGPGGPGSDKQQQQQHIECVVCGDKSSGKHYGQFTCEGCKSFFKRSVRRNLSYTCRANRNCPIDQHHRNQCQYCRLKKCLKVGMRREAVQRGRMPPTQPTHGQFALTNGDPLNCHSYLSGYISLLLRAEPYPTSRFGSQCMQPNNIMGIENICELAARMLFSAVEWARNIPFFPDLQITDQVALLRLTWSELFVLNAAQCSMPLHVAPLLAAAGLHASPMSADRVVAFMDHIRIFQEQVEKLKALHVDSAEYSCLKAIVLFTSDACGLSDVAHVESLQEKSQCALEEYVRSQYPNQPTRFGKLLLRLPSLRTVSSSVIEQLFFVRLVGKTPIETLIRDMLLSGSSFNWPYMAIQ
compound,measurement,setting,value
CCCC(=O)Nc1cc(-c2cn3cccnc3n2)ccc1OC,Ki,[1],> 66.7 µM (inactive)
C[C@H]1CCCCO[C@@H](CN(C)Cc2ccncc2)[C@@H](C)CN([C@@H](C)CO)C(=O)c2cc(NC(=O)Nc3ccccc3)ccc2O1,AC50,[2],0.764 µM (active)
same,AC50,[3],33.2 µM (active)
same,AC50,[4],32.9 µM (active)
same,AC50,[5],10.7 µM (active)
same,AC50,[6],33.2 µM (active)
C[C@H]1CN([C@@H](C)CO)C(=O)c2cccc(NC(=O)c3ccncc3)c2O[C@H]1CN(C)Cc1ccc(Oc2ccccc2)cc1,IC50,[7],43.7 µM (inactive)
same,IC50,[8],> 100 µM (inactive)
same,AC50,[9],0.08 µM (active)
same,IC50,[10],6.15 µM (inactive)
same,IC50,[11],2.94 µM (inactive)
same,IC50,[12],47.5 µM (inactive)
same,AC50,[13],0.0116 µM (active)
same,AC50,[14],0.0252 µM (active)
same,IC50,[15],0.00042 µM (active)
same,IC50,[16],> 100 µM (inactive)
same,IC50,[17],0.059 µM (active)
same,IC50,[18],3.62 µM (inactive)
Cc1cccc2sc(N(CCCN(C)C)C(=O)CCS(=O)(=O)c3ccccc3)nc12,IC50,[19],6.59 µM (active)
same,AC50,[20],6.18 µM (active)
same,AC50,[21],35.7 µM (active)
same,AC50,[22],20.3 µM (active)
same,AC50,[23],21.8 µM (active)
same,AC50,[24],6.9 µM (active)
same,AC50,[25],8.92 µM (active)
same,AC50,[26],43.1 µM (active)
same,AC50,[27],11.5 µM (active)
same,AC50,[28],34.8 µM (active)
same,AC50,[29],8.43 µM (active)
same,AC50,[30],17.1 µM (active)
same,AC50,[31],7.67 µM (active)
COCCSc1nnc(-c2ccccc2)o1,IC90,[32],4 µM (active)
same,IC90,[33],4 µM (active)
same,IC90,[34],16 µM (active)
Cc1ccc(-n2nc3c(=O)n(C(C)C(=O)NCc4ccccc4Cl)nc(C)c3c2C)cc1 (stereo not drawn),EC50,[35],> 260 µM (inactive)
same,IC50,[36],11.9 µM (inactive)
CC(C)N1C[C@H](C)[C@@H](CN(C)Cc2ccc(Oc3ccccc3)cc2)Oc2c(NC(=O)C3CCNCC3)cccc2C1=O,AC50,[37],8.99 µM (active)
same,AC50,[13],0.983 µM (active)
same,AC50,[14],0.983 µM (active)
same,AC50,[38],8.99 µM (active)
Cc1[nH]c2ccccc2c1C(=O)/C=C/c1ccccc1,EC50,[39],22 µM (active)
same,EC50,[40],19.2 µM (active)
same,IC50,[41],> 100 µM (inactive)
same,AC50,[42],29.8 µM (active)
C[C@H]1CN([C@@H](C)CO)C(=O)c2cccc(NC(=O)Nc3ccc(C(F)(F)F)cc3)c2O[C@@H]1CN(C)C(=O)Nc1cccc2ccccc12,AC50,[9],4.5 µM (active)
same,AC50,[43],25 µM (active)
same,AC50,[44],19.8 µM (active)
same,AC50,[45],29.7 µM (active)
